How the values were obtained:
Type in all cases: cell-based
[1] = tested on: Escherichia coli ATCC 25922; experiment: Antimicrobial activity MIC/MBC test, Escherichia coli ATCC 25922; settings: ATCC25922, read-out: MBC (minimum bactericidal concentration)
Method: (§1) The four reference strains were indications of the minimum inhibitory concentration (MIC) and minimum bactericidal concentration (MBC) tests conducted for two newly synthesized compounds of the new quaternary ammonium salts derivatives: 4-[2-(4-bromophenyl)-2-oxoethyl]tetrahydro[1,3]oxazolo[2,3-b][1,3]oxazol-4-ium bromide and 4-[2-(biphenyl-4-yl)-2-oxoethyl]tetrahydro[1,3]oxazolo[2,3-b][1,3]oxazol-4-ium bromide. The study was carried out on strains: Staphylocoocus aureus ATCC 6538, Escherichia coli ATCC 25922, Pseudomonas aeruginosa ATCC 6749, Candida albicans ATCC 10231,

[2] = tested on: Candida albicans ATCC 10231; experiment: Antimicrobial activity MIC/MBC test, Candida albicans ATCC 10231; settings: ATCC10231, read-out: MBC (minimum bactericidal concentration)
Method: as §1

[3] = tested on: Staphylocoocus aureus ATCC 6538; experiment: Antimicrobial activity MIC/MBC test, Staphylocoocus aureus ATCC 6538; settings: read-out: MBC (minimum bactericidal concentration)
Method: as §1

[4] = tested on: Pseudomonas aeruginosa ATCC 6749; experiment: Antimicrobial activity MIC/MBC test, Pseudomonas aeruginosa ATCC 6749; settings: for MBC: ATCC6749, read-out: MBC (minimum bactericidal concentration); for MIC: ATCC6749, read-out: MIC (minimum inhibitory concentration)
Method: as §1

MIC [4] [mg/mL]	Compound	MBC [1] [mg/mL]	MBC [2] [mg/mL]	MBC [3] [mg/mL]	MBC [4] [mg/mL]
27.8	O=C(C[N+]12CCOC1OCC2)c1ccc(Br)cc1.[Br-] (stereo not shown) [4-[2-(4-bromophenyl)-2-oxoethyl]tetrahydro[1,3]oxazolo[2,3-b][1,3]oxazol-4-ium bromide]	6.94	27.8	1.73	27.8
13.9	O=C(C[N+]12CCOC1OCC2)c1ccc(-c2ccccc2)cc1.[Br-] (stereo not shown) [4-[2-(biphenyl-4-yl)-2-oxoethyl]tetrahydro[1,3]oxazolo[2,3-b][1,3]oxazol-4-ium bromide]	3.47	6.94	0.43	55.5

Source: patent publication US9169267B2, “Quaternary ammonium salts, method for preparation and applications thereof” (Uniwersytet Medyczny IM. Karola Marcinkowskiego, priority 2012, dated 2015)
